According to ChEMBL document CHEMBL1857833, “Screening and optimization of specific chemical series against human African Trypanosomiasis (HAT)”:
Converted amounts (≈) assume the structure as drawn.

Legend:
[1] = DNDI: Cytotoxicity against L929 mouse fibroblasts, 72 hour.; format: toxicity, cell-based; details: mouse, L929 mouse fibroblasts
in vitro = details: mouse, liver microsomes, t (1 / 2)
Description: DNDI: half life in mouse liver microsomes at a concentration of 1uM

Trypanosoma brucei = assay: DNDI: Inhibition of Human African Trypanosomiasis, SBRI 427, in vitro; format: functional, organism-based
[2] = mouse, microsomes, 1 µM
Description: DNDI: in vitro intrinsic clearance in mouse liver microsomes at a concentration of 1uM

[3] = DNDI: Cytotoxicity against L929 mouse fibroblasts, CYTO-SP, 24 hour; format: toxicity, cell-based; details: mouse, L929 mouse fibroblasts
[4] = Trypanosoma brucei, SBRI 427, read-out: IC50

| half-life at 1 µM (in vitro) [min] | IC50 (Trypanosoma brucei; [4]) [µg/mL] | CLint in vitro [2] [µL/min/mg] | IC50 (Trypanosoma brucei) [µg/mL] | Structure (SMILES) | IC50 at 72 h [1] [µg/mL] | IC50 at 24 h [3] [µg/mL] |
| --- | --- | --- | --- | --- | --- | --- |
| 75 | 0.37 (≈ 1.02 µM) | 11 | – | CCCCCC(C)NCc1coc(-c2ccc(OCCCC)c(F)c2)n1 (stereo not given) | 0.73 (≈ 2.01 µM) | – |
| 20 | 1.57 (≈ 4.36 µM) | 42 | – | CCCCCC(C)NCc1coc(-c2ccc(OCCOCC)cc2)n1 (stereo not given) | 5.78 (≈ 16 µM) | – |
| 64 | 0.31 (≈ 0.79 µM) | 13 | – | CCCCCC(C)NCc1coc(-c2ccc(OCc3ccc(C)cc3)cc2)n1 (stereo not given) | 1.27 (≈ 3.24 µM) | – |
| 4 | 5 (≈ 11 µM) | 217 | – | Cc1cccc(CNC(c2ccccc2)c2nc(Cc3ccccc3)c(N3CCOCC3)o2)c1 (stereo not given) | > 10 | – |
| 79 | 1.37 (≈ 3.72 µM) | 11 | – | CC(C)Oc1ccc(-c2nc(CN[C@@H]3C[C@@H]4C[C@H]([C@H]3C)C4(C)C)co2)cc1 | 1.9 (≈ 5.16 µM) | – |
| 22 | 0.39 (≈ 0.994 µM) | 39 | – | CCCCCC(C)NCc1coc(-c2ccc(OCCc3ccccc3)cc2)n1 (stereo not given) | 0.72 (≈ 1.83 µM) | – |
| 26.8 | 0.32 (≈ 0.813 µM) | 31.75 | – | Cc1ccc(/C(=N/O)Nc2cccc(F)c2)c(Oc2ccc(C(C)(C)C)cc2)n1 | 5.39 (≈ 13.7 µM) | – |
| 267 | 0.42 (≈ 1.27 µM) | 3 | – | CC(C)(C)CNCc1coc(-c2ccc(OCC(C)(C)C)cc2)n1 | 1.35 (≈ 4.09 µM) | – |
| 20 | 0.74 (≈ 2.58 µM) | 42 | – | CCCCc1ccc(-c2nc(CNC(C)CC)co2)cc1 (stereo not given) | 2.75 (≈ 9.6 µM) | – |
| 17 | 2.22 (≈ 8.15 µM) | 50 | – | CCCCc1ccc(-c2nc(CNC(C)C)co2)cc1 | 5.7 (≈ 20.9 µM) | – |
| 232 | 0.22 (≈ 0.621 µM) | 4 | – | CCCCCC(C)NCc1coc(-c2ccc(C3CCCCC3)cc2)n1 (stereo not given) | 0.67 (≈ 1.89 µM) | – |
| 2 | 4.15 (≈ 8.58 µM) | 344 | – | COc1ccccc1CNC(CCc1ccccc1)c1nc(-c2ccccc2)c(N2CCOCC2)o1 (stereo not given) | > 10 | – |
| 3 | 1.05 (≈ 2.91 µM) | 255 | – | Cc1ccc(/C(=N/O)NC2CCCCC2)c(Oc2c(F)cccc2F)n1 | > 10 | – |
| 13 | – | 66 | – | COc1ccc(/C(=N/O)Nc2cccc(-c3ccccc3)c2)cc1 | > 10 | – |
| 19 | > 5 | 44 | – | CCCCc1ccc(-c2nc(CNCc3cccnc3)co2)cc1 | > 10 | – |
| 70 | 0.3 (≈ 0.793 µM) | 12 | – | CCCCCC(C)NCc1coc(-c2ccc(Oc3ccc(C)cc3)cc2)n1 (stereo not given) | 1.42 (≈ 3.75 µM) | – |
| 16 | 3.24 (≈ 10.2 µM) | 55 | – | CCCCCC(C)NCc1coc(Cc2ccc(OC)cc2)n1 (stereo not given) | 10 (≈ 31.6 µM) | – |
| 98 | 0.88 (≈ 2.57 µM) | 9 | – | CCCCCC(C)NCc1coc(-c2ccc(OC3CCC3)cc2)n1 (stereo not given) | 2.36 (≈ 6.89 µM) | – |
| 41 | 0.47 (≈ 1.14 µM) | 21 | – | CCCCCC(C)NCc1coc(-c2ccc(OCc3ccc(Cl)cc3)cc2)n1 (stereo not given) | 1.67 (≈ 4.04 µM) | – |
| 313 | 0.34 (≈ 0.852 µM) | 3 | – | CCCCCC(C)NCc1coc(-c2ccc(Oc3ccc(Cl)cc3)cc2)n1 (stereo not given) | 2.07 (≈ 5.19 µM) | – |

| half-life at 1 µM (in vitro) [min] | IC50 (Trypanosoma brucei; [4]) [µg/mL] | CLint in vitro [2] [µL/min/mg] | IC50 (Trypanosoma brucei) [µg/mL] | Structure (SMILES) | IC50 at 72 h [1] [µg/mL] | IC50 at 24 h [3] [µg/mL] |
| --- | --- | --- | --- | --- | --- | --- |
| 2 | > 5 | 348 | – | CCCCc1ccc(-c2nc(CN3CCOCC3)co2)cc1 | > 10 | – |
| 3 | 5 (≈ 11.9 µM) | 300 | – | COc1ccccc1CNC(c1nc(-c2ccccc2)c(N2CCOCC2)o1)C1CC1 (stereo not given) | > 10 | – |
| 3 | 1.17 (≈ 3.63 µM) | 318 | – | Cc1ccc(Cc2ccccc2/C(=N/O)NC2CCCCC2)cc1 | 3.48 (≈ 10.8 µM) | – |
| 27 | 2.22 (≈ 7.08 µM) | 31 | – | CCCCc1ccc(-c2nc(CN3CCN(C)CC3)co2)cc1 | 3.75 (≈ 12 µM) | – |
| 353 | > 5 | 2 | – | CCc1ccc(Oc2ncccc2/C(=N\O)NC2CCCC[C@H]2N)cc1 (stereo not given in full) | > 10 | – |
| – | 4.1 (≈ 13.1 µM) | – | – | CCOc1ccc(-c2nc(CNC3CC4CCC3C4)co2)cc1 (stereo not given) | 4.62 (≈ 14.8 µM) | 35 (≈ 112 µM) |
| 63 | 1.14 (≈ 3.13 µM) | 14 | – | CCCCCC(C)NCc1coc(-c2cccc(Oc3ccccc3)c2)n1 (stereo not given) | 1.76 (≈ 4.83 µM) | – |
| – | 0.29 (≈ 0.849 µM) | – | 0.33 (≈ 0.967 µM) | COc1ccc(Oc2ncccc2/C(=N/O)NC2CCCCC2)cc1 | > 10 | > 50 |
| – | 3.56 (≈ 12.3 µM) | – | – | CCCCCC(C)NCc1coc(-c2ccccc2O)n1 (stereo not given) | 7.32 (≈ 25.4 µM) | 24 (≈ 83.2 µM) |
| – | > 5 | – | – | CCCCc1ccc(-c2nc(C(F)(F)F)co2)cc1 | 43.8 (≈ 163 µM) | > 50 |
| 63 | 0.44 (≈ 1.15 µM) | 13 | – | CCCCCC(C)NCc1coc(-c2ccc(Oc3ccc(F)cc3)cc2)n1 (stereo not given) | 1.63 (≈ 4.26 µM) | – |
| – | > 5 | – | – | CCCCCC(C)NCc1noc(-c2ccccc2)n1 (stereo not given) | 30.7 (≈ 112 µM) | 50 (≈ 183 µM) |
| 2 | 1.19 (≈ 3.86 µM) | 381 | – | O/N=C(\NC1CCCCC1)c1ccccc1Cc1ccccc1 | 4.57 (≈ 14.8 µM) | – |
| – | 1.76 (≈ 5.74 µM) | – | – | CCCCC[C@H](C)NCc1coc(-c2ccc(Cl)cc2)n1 | 7.01 (≈ 22.8 µM) | 37 (≈ 121 µM) |
| – | > 5 | – | – | Clc1ccc(-c2nc(CNc3ccccc3)co2)cc1 | 10.5 (≈ 36.9 µM) | > 50 |
| 78 | 0.43 (≈ 1.17 µM) | 11 | – | c1cc(-c2nc(CNC3CCCCCC3)co2)ccc1OC1CCCCC1 | 1.29 (≈ 3.5 µM) | – |
| 3 | 2.72 (≈ 6.81 µM) | 255 | – | CCOCCCNC(c1nc(-c2ccccc2)c(N2CCCCC2)o1)C(C)CC (stereo not given) | 4.44 (≈ 11.1 µM) | – |
| – | > 5 | – | – | CCCCC[C@@H](C)N(Cc1coc(-c2ccc(Cl)cc2)n1)Cc1coc(-c2ccc(Cl)cc2)n1 | > 50 | > 50 |
| – | > 5 | – | – | CCOc1ccc(-c2nc(CNC3C[C@@H]4C[C@H]([C@@H]3C)C4(C)C)co2)cc1 (stereo not given in full) | 3.64 (≈ 10.3 µM) | > 50 |
| 53 | – | 16 | – | CCCCc1ccc(-c2nc(CNCc3ccc(OC)cc3)co2)cc1 | 3.13 (≈ 8.93 µM) | – |

| half-life at 1 µM (in vitro) [min] | IC50 (Trypanosoma brucei; [4]) [µg/mL] | CLint in vitro [2] [µL/min/mg] | IC50 (Trypanosoma brucei) [µg/mL] | Structure (SMILES) | IC50 at 72 h [1] [µg/mL] | IC50 at 24 h [3] [µg/mL] |
| --- | --- | --- | --- | --- | --- | --- |
| 34 | 1.29 (≈ 3.27 µM) | 25 | – | CCCCCC(C)NCc1coc(-c2ccc(Oc3ccc(OC)cc3)cc2)n1 (stereo not given) | 5.61 (≈ 14.2 µM) | – |
| – | 2.64 (≈ 9.15 µM) | – | – | CCCCCC(C)NCc1csc(-c2ccccc2)n1 (stereo not given) | 4.45 (≈ 15.4 µM) | 18 (≈ 62.4 µM) |
| – | 1.82 (≈ 6.27 µM) | – | – | CCCCCC(C)NCc1coc(-c2ccccc2F)n1 (stereo not given) | 3.59 (≈ 12.4 µM) | 13 (≈ 44.8 µM) |
| 10 | 1.6 (≈ 5.06 µM) | 87 | – | CCCCCC(C)NCc1coc(-c2ccc(C)c(OC)c2)n1 (stereo not given) | 5.27 (≈ 16.7 µM) | – |
| – | 1.36 (≈ 4.14 µM) | – | – | CCCCCC(C)NCc1coc(-c2cc3ccccc3s2)n1 (stereo not given) | 3.46 (≈ 10.5 µM) | > 50 |
| 19 | 1.06 (≈ 2.88 µM) | 45 | – | CC(C)Oc1ccc(-c2nc(CNC[C@@H]3CC[C@H]4C[C@@H]3C4(C)C)co2)cc1 | 1.36 (≈ 3.69 µM) | – |
| – | > 5 | – | – | CCCCCC(C)NCc1nc(-c2ccccc2)no1 (stereo not given) | 30.8 (≈ 113 µM) | 50 (≈ 183 µM) |
| – | > 5 | – | – | Clc1ccc(-c2nc(CN[C@]34C[C@H]5C[C@H](C[C@H](C5)C3)C4)co2)cc1 | 37.6 (≈ 110 µM) | > 50 |
| – | 4.83 (≈ 15.7 µM) | – | – | CCCCCC(C)NCc1coc(-c2c(F)cccc2F)n1 (stereo not given) | 18.7 (≈ 60.6 µM) | > 50 |
| – | 1.48 (≈ 4.15 µM) | – | – | CCCCCC(C)NCc1coc(-c2ccccc2OC(F)(F)F)n1 (stereo not given) | 3.23 (≈ 9.06 µM) | 37 (≈ 104 µM) |
| – | 2.7 (≈ 8.86 µM) | – | – | CN(Cc1coc(-c2ccc(Cl)cc2)n1)C1CCCCC1 | 11.4 (≈ 37.4 µM) | > 50 |
| – | 4.05 (≈ 14.2 µM) | – | – | CCCCCC(C)NCc1cc(-c2ccccc2)n(C)n1 (stereo not given) | 12.8 (≈ 45 µM) | 50 (≈ 175 µM) |
| – | 3.62 (≈ 13.3 µM) | – | – | CCCCCC(C)NCc1ccc(-c2ccccc2)o1 (stereo not given) | 7.14 (≈ 26.3 µM) | 32 (≈ 118 µM) |
| – | > 5 | – | – | CC1CC(NCc2coc(-c3sccc3Cl)n2)CC(C)(C)C1 (stereo not given) | > 50 | > 50 |
| 2 | 1.4 (≈ 4.25 µM) | 389 | – | O/N=C(/NC1CCCCC1)c1cccnc1Oc1ccc(F)cc1 | > 10 | – |
| 4 | 4.9 (≈ 12.5 µM) | 206 | – | CCC(C)C(NCc1ccco1)c1nc(-c2ccccc2)c(N2CCCCC2)o1 (stereo not given) | > 10 | – |
| – | > 5 | – | – | Clc1ccc(-c2nc(CN3CCCCC3)co2)cc1 | 34.4 (≈ 124 µM) | > 50 |
| – | 3.38 (≈ 11.8 µM) | – | – | CCCCCC(C)NCc1cc(-c2ccccc2)nn1C (stereo not given) | 12.7 (≈ 44.5 µM) | 50 (≈ 175 µM) |
| – | 1.8 (≈ 6.26 µM) | – | – | CCCCCC(C)NCc1ccc(-c2ccccc2)s1 (stereo not given) | 7.16 (≈ 24.9 µM) | 23 (≈ 80 µM) |
| – | 2.97 (≈ 9.63 µM) | – | – | CCCCCC(C)NCc1coc(-c2ccc(F)cc2F)n1 (stereo not given) | 12.4 (≈ 40.3 µM) | > 50 |
